Assay results as given in patent publication US9085550B2, “Ligands for estrogen related receptors and methods for synthesis of said ligands” (CITY OF HOPE, priority 2005, dated 2015).
One block for each compound: values may come before it.

Tests used:
[1] = target: T1, HRHN-GAL (yeast GAL4 DNA binding domain without receptor sequences) (Saccharomyces cerevisiae, UniProt P04386); experiment: GAL4 reporter transactivation assay in CV-1 cells, control vector without receptor; type: cell-based, monkey
T1 construct: expressed in transfected cells; host or cells: CV-1

[2] = target: T2, GAL-hERRa (human ERRα ligand binding domain fused to GAL4 DNA binding domain) (Homo sapiens, UniProt P11474); experiment: GAL4 reporter transactivation assay in CV-1 cells, GAL-hERRa; type: cell-based
T2 construct: expressed in transfected cells; host or cells: CV-1
T2 sequence (P11474 193-421 limits assumed): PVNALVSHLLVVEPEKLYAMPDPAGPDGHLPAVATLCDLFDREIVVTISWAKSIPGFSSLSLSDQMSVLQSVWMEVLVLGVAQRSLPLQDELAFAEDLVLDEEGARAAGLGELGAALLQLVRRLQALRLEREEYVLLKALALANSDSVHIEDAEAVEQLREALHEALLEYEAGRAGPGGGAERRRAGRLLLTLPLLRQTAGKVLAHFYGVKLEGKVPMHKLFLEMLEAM

[3] = target: T3, GAL-L-hERRb (human ERRβ ligand binding domain fused to GAL4 DNA binding domain) (Homo sapiens, UniProt O95718); experiment: GAL4 reporter transactivation assay in CV-1 cells, GAL-L-hERRb; type: cell-based
T3 construct: expressed in transfected cells; host or cells: CV-1
T3 sequence (O95718 208-432 limits assumed): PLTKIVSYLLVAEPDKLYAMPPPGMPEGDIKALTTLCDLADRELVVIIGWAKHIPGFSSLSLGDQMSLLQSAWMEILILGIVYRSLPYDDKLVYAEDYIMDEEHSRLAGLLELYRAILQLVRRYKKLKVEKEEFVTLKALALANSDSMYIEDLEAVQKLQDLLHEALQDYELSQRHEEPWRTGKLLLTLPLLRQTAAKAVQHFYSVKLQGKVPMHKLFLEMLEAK

[4] = target: T4, GAL-mERRg (mouse ERRγ ligand binding domain fused to GAL4 DNA binding domain) (Mus musculus, UniProt P62509); experiment: GAL4 reporter transactivation assay in CV-1 cells, GAL-mERRg; type: cell-based
T4 construct: expressed in transfected cells; host or cells: CV-1
T4 sequence (P62509 233-457 limits assumed): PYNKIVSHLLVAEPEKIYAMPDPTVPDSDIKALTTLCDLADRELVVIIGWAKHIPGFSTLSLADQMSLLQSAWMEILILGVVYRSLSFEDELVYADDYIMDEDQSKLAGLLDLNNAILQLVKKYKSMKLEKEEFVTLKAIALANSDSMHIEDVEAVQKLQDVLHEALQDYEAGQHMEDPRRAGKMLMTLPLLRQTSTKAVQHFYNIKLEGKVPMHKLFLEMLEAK

[5] = target: T5, human ERα (Homo sapiens, UniProt P03372); experiment: ERE-TK-luc reporter transactivation assay in CV-1 cells, full-length hERa; type: cell-based
T5 construct: Human ERα and ERβ were examined as full-length proteins using an estrogen receptor responsive reporter construct; expressed in transfected cells; host or cells: CV-1
T5 sequence (P03372 1-595): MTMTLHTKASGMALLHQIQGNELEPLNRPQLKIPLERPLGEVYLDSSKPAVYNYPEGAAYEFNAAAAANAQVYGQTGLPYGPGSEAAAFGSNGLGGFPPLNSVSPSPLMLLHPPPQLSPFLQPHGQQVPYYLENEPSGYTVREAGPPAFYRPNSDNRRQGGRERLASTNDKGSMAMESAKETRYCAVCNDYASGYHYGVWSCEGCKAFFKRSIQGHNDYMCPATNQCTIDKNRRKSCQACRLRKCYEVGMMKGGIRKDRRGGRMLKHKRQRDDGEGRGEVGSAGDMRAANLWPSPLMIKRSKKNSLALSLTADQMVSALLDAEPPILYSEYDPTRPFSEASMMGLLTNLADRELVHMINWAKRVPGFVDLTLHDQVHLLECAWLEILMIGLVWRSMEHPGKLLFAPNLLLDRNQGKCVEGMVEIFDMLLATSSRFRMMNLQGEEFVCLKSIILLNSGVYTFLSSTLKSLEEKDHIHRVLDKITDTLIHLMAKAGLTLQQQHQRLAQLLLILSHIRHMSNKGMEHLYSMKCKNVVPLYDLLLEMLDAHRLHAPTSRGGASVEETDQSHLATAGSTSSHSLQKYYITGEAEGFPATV
Procedure: (§1) Human ERα and ERβ were examined as full-length proteins using an estrogen receptor responsive reporter construct.
(§2) Suitable reporter gene constructs are well known to skilled workers in the fields of biochemistry and molecular biology. […] Other vectors known in the art can be used in the methods of the present invention.
(§3) CV-1 cells for the activation assays were grown in Dulbecco's modified Eagle's medium supplemented with 10% resin charcoal-stripped fetal bovine serum, 50 U/ml penicillin G and 50 μg/ml streptomycin sulfate (DMEM-FBS) at 37° C. in 5% CO2. One day prior to transfection, cells were plated to 50-80% confluence using phenol red free DMEM-FBS.

[6] = target: T6, human ERβ (Homo sapiens, UniProt Q92731); experiment: ERE-TK-luc reporter transactivation assay in CV-1 cells, full-length hERb; type: cell-based
T6 construct: Human ERα and ERβ were examined as full-length proteins using an estrogen receptor responsive reporter construct; expressed in transfected cells; host or cells: CV-1
Procedure: as §1, §2, §3

[7] = target: T7, ERRγ (Homo sapiens, UniProt P62508); conditions: background statement; cited from earlier work
T7 sequence (P62508 1-458): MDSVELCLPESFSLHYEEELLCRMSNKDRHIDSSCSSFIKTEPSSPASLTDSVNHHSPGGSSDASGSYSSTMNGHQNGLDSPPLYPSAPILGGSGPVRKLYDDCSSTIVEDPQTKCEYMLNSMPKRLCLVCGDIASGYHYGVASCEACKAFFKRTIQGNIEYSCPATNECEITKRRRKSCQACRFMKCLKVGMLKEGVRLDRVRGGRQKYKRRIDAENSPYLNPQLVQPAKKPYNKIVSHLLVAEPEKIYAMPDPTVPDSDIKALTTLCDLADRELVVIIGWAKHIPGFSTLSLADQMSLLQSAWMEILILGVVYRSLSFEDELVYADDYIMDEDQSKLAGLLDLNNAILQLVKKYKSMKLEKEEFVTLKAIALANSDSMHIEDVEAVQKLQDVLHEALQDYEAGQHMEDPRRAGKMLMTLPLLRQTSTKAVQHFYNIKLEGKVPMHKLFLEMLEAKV

[8] = CV-1, reporter 0.42:vector 0.00875:PGC-1a 0.035, 30 μM
[9] = CV-1, reporter 0.42:vector 0.00875, no PGC-1a, 30 μM

T1 sequence (P04386 1-147): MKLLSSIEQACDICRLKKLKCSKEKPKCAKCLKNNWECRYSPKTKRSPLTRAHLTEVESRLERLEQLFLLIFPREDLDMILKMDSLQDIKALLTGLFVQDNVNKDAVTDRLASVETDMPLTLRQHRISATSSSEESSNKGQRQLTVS
T6 sequence (Q92731 whole entry): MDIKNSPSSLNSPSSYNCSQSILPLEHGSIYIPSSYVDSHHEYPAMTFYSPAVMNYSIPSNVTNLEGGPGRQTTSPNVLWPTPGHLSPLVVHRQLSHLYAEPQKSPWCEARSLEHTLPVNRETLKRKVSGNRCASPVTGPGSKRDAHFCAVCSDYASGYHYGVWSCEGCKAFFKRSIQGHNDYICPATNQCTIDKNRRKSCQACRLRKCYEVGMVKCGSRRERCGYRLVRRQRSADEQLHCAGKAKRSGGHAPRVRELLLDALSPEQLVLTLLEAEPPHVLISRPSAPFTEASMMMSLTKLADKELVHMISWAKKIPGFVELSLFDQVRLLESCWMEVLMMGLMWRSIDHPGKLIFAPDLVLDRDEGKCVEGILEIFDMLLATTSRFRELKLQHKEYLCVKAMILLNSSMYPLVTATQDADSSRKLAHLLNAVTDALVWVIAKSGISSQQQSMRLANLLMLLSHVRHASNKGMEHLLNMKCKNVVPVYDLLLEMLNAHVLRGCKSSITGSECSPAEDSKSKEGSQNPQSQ

- melting point: 260.5 °C
Structure (SMILES): O=C(NN=Cc1ccc(C(F)(F)F)cc1)c1ccc(O)cc1 [DY168, 4-Hydroxy-benzoic acid (4-trifluoromethyl-benzylidene)-hydrazide]

- melting point: 279.6 °C
Structure (SMILES): O=C(NN=Cc1ccc(C(F)(F)F)c([N+](=O)[O-])c1)c1ccc(O)cc1 [DY170, 4-Hydroxy-benzoic acid (3-nitro-4-trifluoromethyl-benzylidene)-hydrazide]

- melting point: 235.4 °C
Structure (SMILES): Cc1[nH]c(C=NNC(=O)c2ccc(O)cc2)c(C)c1Br [DY172, 4-Hydroxy-benzoic acid (4-bromo-3,5-dimethyl-1H-pyrrol-2-ylmethylene)-hydrazide]

- melting point: 251.4 °C
Structure (SMILES): Cc1cc(C=NNC(=O)c2ccc(O)cc2)oc1C [DY173, 4-Hydroxy-benzoic acid (4,5-dimethyl-furan-2-ylmethylene)-hydrazide]

- melting point: 258.3 °C
Structure (SMILES): Oc1nc(Cl)nc(NN=Cc2cc(C(F)(F)F)cc(C(F)(F)F)c2)n1 [DY176, 4-[N′-(3,5-Bis-trifluoromethyl-benzylidene)-hydrazino]-6-chloro-[1,3,5]triazin-2-ol]

Continued, compound first:

Structure (SMILES): CCc1ccc(C=NNC(=O)c2ccc(O)cc2)s1 [DY164, 4-Hydroxy-benzoic acid (5-ethyl-thiophen-2-ylmethylene)-hydrazide]
- Fold activation, HRHN-GAL ([1]; reporter 0.42:vector 0.00875, no PGC-1a, 30 μM): 1.46 fold
- Fold activation, HRHN-GAL + PGC-1a ([1]; reporter 0.42:vector 0.00875:PGC-1a 0.035, 30 μM): 1.62 fold
- Fold activation, GAL-hERRa + PGC-1a [2, 8]: 2.75 fold
- Fold activation, GAL-hERRa [2, 9]: 1.74 fold
- Activation of ERRα ([2]; in the presence of PGC-1a): can activate
- Fold activation, GAL-L-hERRb + PGC-1a [3, 8]: 2.34 fold
- Fold activation, GAL-L-hERRb [3, 9]: 1.89 fold
- Activation of ERRβ ([3]; in the presence of PGC-1a): can activate
- Fold activation, GAL-mERRg + PGC-1a [4, 8]: 2.45 fold
- Fold activation, GAL-mERRg [4, 9]: 2.10 fold
- Activation of ERRγ ([4]; in the presence of PGC-1a): can activate
- Fold Activation, ERE-TK-luc, hERa ([5]; Table 7, CV-1, drug conc 30 μM): 1.30 fold
- Activation of ERa ([5]; specificity for ERRs): do not activate
- Fold Activation, ERE-TK-luc, hERb ([6]; Table 7, CV-1, drug conc 30 μM): 1.74 fold
- Activation of ERb ([6]; specificity for ERRs): do not activate
- melting point: 194.5 °C

Structure (SMILES): O=C(NN=Cc1cccc(C(F)(F)F)c1Cl)c1ccc(O)cc1 [DY165, 4-Hydroxy-benzoic acid (2-chloro-3-trifluoromethyl-benzylidene)-hydrazide]
- melting point: 261.5 °C

Structure (SMILES): Cc1ccc(C=NNC(=O)c2ccc(O)cc2)s1 [DY166, 4-Hydroxy-benzoic acid (5-methyl-thiophen-2-ylmethylene)-hydrazide]
- melting point: 215.7 °C

Structure (SMILES): Cc1cc(C)c(C=NNC(=O)c2ccc(O)cc2)[nH]1 [DY171, 4-Hydroxy-benzoic acid (3,5-dimethyl-1H-pyrrol-2-ylmethylene)-hydrazide]
- melting point: 261.2 °C

Structure (SMILES): CCc1ccc(C=NNC(=O)c2ccc(O)cc2)o1 [DY175, 4-Hydroxy-benzoic acid (5-ethyl-furan-2-ylmethylene)-hydrazide]
- melting point: 60.5 °C

Structure (SMILES): COc1cc(/C=C(\C#N)C(=O)Nc2nnc(C(F)(F)F)s2)ccc1OCc1ccc(C(F)(F)F)cc1C(F)(F)F [XCT790]
- Activity on ERRγ [7]: no activity
